system: TNFα production; assay: Inhibition of the production of TNFα in vitro in human whole blood; assay type: cell-based; settings: lipopolysaccharide 10 μg/ml, 6 hours at 37° C., ELISA of plasma, read-out: Inhibitory Effect on TNFα Production (in vitro) IC50
Method: Inhibition of the Production of the Cytokines IL-1β and TNFα In Vitro in Human Whole Blood
This test was performed according to the method of Hartman, et al. [D. A. Hartman, S. J. Ochalski and R. P. Carlson; The effects of anti-inflammatory and antiallergic drugs on cytokine release after stimulation of human whole blood by lipopolysaccharide and zymosan A: Inflamm. Res., 44, 269 (1995)].
Peripheral blood samples were collected in the presence of heparin from healthy adult volunteers. 1000 μl of whole blood was added to an Eppendorf tube to which 2 μl of a dimethyl sulfoxide solution of the test compound had been previously added, after which 10 μl of lipopolysaccharide (E. coli O26: B6 origin, Difco) was added as a stimulant (final concentration of said lipopolysaccharide: 10 μg/ml). This was thoroughly mixed and then incubated for 6 hours at 37° C. in the presence of 5% CO2. At the end of the incubation, the mixture was cooled to 4° C. to stop the reaction, followed immediately by centrifuging for 5 minutes at 14,000 rpm to separate and collect the supernatant plasma. The IL-1β and TNFα produced and released into the plasma were measured using a commercially available enzyme immunoassay (ELISA) kits [Cayman and Genzyme]. The inhibitory effect [IC50 (μM)] on the production of cytokines was determined by the method of least squares from the amounts of the cytokines produced in the presence and absence of the test compound.

Q: For Fc1ccc(-c2[nH]cc(C3=C[C@@H]4C[C@H](c5ccc(F)cc5)CN4CC3)c2-c2ccncc2)cc1 [Example 3, 2-(4-Fluorophenyl)-4-[(2R,8aS)-2-(4-fluorophenyl)-1,2,3,5,6,8a-hexahydroindolizin-7-yl]-3-(pyridin-4-yl)-1H-pyrrole], which IC50 is on record?
A: The IC50 was 5.1 nM.

Q: Cc1ccc([C@H]2C[C@H]3C=C(c4c[nH]c(-c5ccc(F)cc5)c4-c4ccncc4)CCN3C2)cc1 [Example 4, 2-(4-Fluorophenyl)-4-[(2R,8aS)-2-(4-methylphenyl)-1,2,3,5,6,8a-hexahydroindolizin-7-yl]-3-(pyridin-4-yl)-1H-pyrrole] was tested. Which IC50 did it give?
A: Its IC50 is 7.8 nM.

Q: With CCC[C@H]1C[C@H]2C=C(c3n[nH]c(-c4ccc(F)cc4)c3-c3ccncc3)CCN2C1 [Example 6, 5-(4-Fluorophenyl)-3-[(2S,8aS)-2-propyl-1,2,3,5,6,8a-hexahydroindolizin-7-yl]-4-(pyridin-4-yl)-pyrazole] as the molecule, how does the IC50 read?
A: Its IC50 is 6.3 nM.

Q: With Clc1cccc(-c2[nH]cc(C3=C[C@@H]4C[C@@H](c5ccccc5)CN4CC3)c2-c2ccncc2)c1 [Example 10, 2-(3-Chlorophenyl)-4-[(2S,8aS)-2-phenyl-1,2,3,5,6,8a-hexahydroindolizin-7-yl]-3-(pyridin-4-yl)-1H-pyrrole] as the molecule, how does the IC50 read?
A: The IC50 was 7.3 nM.

Q: Which IC50 does the source give for Cc1ccc([C@@H]2C[C@H]3C=C(c4c[nH]c(-c5ccc(F)c(F)c5)c4-c4ccncc4)CCN3C2)cc1 [Example 12, 2-(3,4-Difluorophenyl)-4-[(2S,8aS)-2-(4-methylphenyl)-1,2,3,5,6,8a-hexahydroindolizin-7-yl]-3-(pyridin-4-yl)-1H-pyrrole] here?
A: The IC50 was 5.5 nM.

Q: With COc1ccc([C@@H]2C[C@H]3C=C(c4c[nH]c(-c5ccc(F)cc5)c4-c4ccncc4)CCN3C2)cc1 [Example 16, 2-(4-Fluorophenyl)-4-[(2S,8aS)-2-(4-methoxyphenyl)-1,2,3,5,6,8a-hexahydroindolizin-7-yl]-3-(pyridin-4-yl)-1H-pyrrole] as the molecule, how does the IC50 read?
A: The IC50 was 5.4 nM.

Q: Which IC50 does the source give for Fc1ccc(-c2[nH]cc(C3=C[C@@H]4C[C@@H](c5ccccc5)CN4CC3)c2-c2ccncc2)cc1Cl [Example 46, 2-(3-Chloro-4-fluorophenyl)-4-[(2S,8aS)-2-phenyl-1,2,3,5,6,8a-hexahydroindolizin-7-yl]-3-(pyridin-4-yl)-1H-pyrrole] here?
A: The IC50 was 2.1 nM.

system: TNFα production; assay: Inhibition of the production of TNFα in vivo (lipopolysaccharide-injected mice); settings: Mus musculus, oral, 30 minutes before lipopolysaccharide injection, plasma TNFα 1 hour after LPS, Balb/c mice, average vs control group, read-out: Inhibition Rate (%) of TNFα Production (in vivo)
Method: Inhibition of the Production of TNFα In Vivo
This test was performed according to the method of Ochalaki et al. [S. J. Ochalaki, D. A. Hartman, M. T. Belfast, T. L. Walter, K. B. Glaser and R. P. Carlson; Inhibition of endotoxin-induced hypothermia and serum TNFα levels in CD-1 mice by various pharmacological agents: Agents Actions 39, C52-C54 (1998)].
The production of TNFα was induced in mice by intravenous injection of lipopolysaccharide (E. coli O26: B6 origin, Difco) which was prepared to a concentration of 0.045 mg/ml using physiological saline. The saline preparation of lipopolysaccharide was administered at the rate of 10 ml/1 kg of body weight into the caudal vein of Balb/c mice (males, age 5-7 weeks, body weight: approx. 22 g, Japan Charles River) which had been fasted overnight starting the day before the experiment. One hour after administration, the mice were laparotomized under ether anaesthesia and blood was collected from the abdominal vena cava. Blood collection was performed using a 1 ml volume disposable syringe equipped with a 23G needle which had been moistened with heparin on the inside wall. Following blood collection, the blood was immediately transferred to a 1.5 ml volume Eppendorf tube and centrifuged at 4° C. and 14,000 rpm to separate the plasma. This plasma was then stored at −20° C. until measurement of TNFα.
The measurement of the amount of TNFα was performed with a enzyme immunoassay (ELISA) kit (Mouse TNFα ELISA KIT, Genzyme).
To determine the inhibitory activity of the test compounds, each test compound was suspended in 0.5% tragacanth solution ad then administered orally to the mice at a rate of 10 ml/1 kg of body weight 30 minutes before injection of the lipopolysaccharide, and the average inhibition rates were calculated versus a control group.

Q: How did the inhibition in vivo at 5 mg/kg turn out when Fc1ccc(-c2[nH]cc(C3=C[C@@H]4C[C@@H](c5ccccc5)CN4CC3)c2-c2ccncc2)cc1F [Example 8, 2-(3,4-Difluorophenyl)-4-[(2S,8aS)-2-phenyl-1,2,3,5,6,8a-hexahydroindolizin-7-yl]-3-(pyridin-4-yl)-1H-pyrrole] was run?
A: Its inhibition in vivo at 5 mg/kg is 91%.

Q: With Clc1cccc(-c2[nH]cc(C3=C[C@@H]4C[C@@H](c5ccccc5)CN4CC3)c2-c2ccncc2)c1 [Example 10, 2-(3-Chlorophenyl)-4-[(2S,8aS)-2-phenyl-1,2,3,5,6,8a-hexahydroindolizin-7-yl]-3-(pyridin-4-yl)-1H-pyrrole] as the molecule, how does the inhibition in vivo at 5 mg/kg read?
A: The inhibition in vivo at 5 mg/kg was 91%.

Q: Which inhibition in vivo at 5 mg/kg does the source give for COc1ccc([C@@H]2C[C@H]3C=C(c4c[nH]c(-c5ccc(F)cc5)c4-c4ccncc4)CCN3C2)cc1 [Example 16, 2-(4-Fluorophenyl)-4-[(2S,8aS)-2-(4-methoxyphenyl)-1,2,3,5,6,8a-hexahydroindolizin-7-yl]-3-(pyridin-4-yl)-1H-pyrrole] here?
A: The inhibition in vivo at 5 mg/kg was 90%.

Q: COc1ccc([C@@H]2C[C@H]3C=C(c4c[nH]c(-c5cccc(Cl)c5)c4-c4ccncc4)CCN3C2)cc1 [Example 23, 2-(3-Chlorophenyl)-4-[(2S,8aS)-2-(4-methoxyphenyl)-1,2,3,5,6,8a-hexahydroindolizin-7-yl]-3-(pyridin-4-yl)-1H-pyrrole] was tested. Which inhibition in vivo at 5 mg/kg did it give?
A: The inhibition in vivo at 5 mg/kg was 90%.

Q: Which inhibition in vivo at 5 mg/kg does the source give for C1=C(c2c[nH]c(-c3ccccc3)c2-c2ccncc2)CCN2C[C@H](c3ccccc3)C[C@@H]12 [Example 25, 2-Phenyl-4-[(2S,8aS)-2-phenyl-1,2,3,5,6,8a-hexahydroindolizin-7-yl]-3-(pyridin-4-yl)-1H-pyrrole] here?
A: Its inhibition in vivo at 5 mg/kg is 92%.

Q: Which inhibition in vivo at 5 mg/kg does the source give for CCOc1ccc([C@@H]2C[C@H]3C=C(c4c[nH]c(-c5ccc(F)cc5)c4-c4ccncc4)CCN3C2)cc1 [Example 30, 4-[(2S,8aS)-2-(4-Ethoxyphenyl)-1,2,3,5,6,8a-hexahydroindolizin-7-yl]-2-(4-fluorophenyl)-3-(pyridin-4-yl)-1H-pyrrole] here?
A: Its inhibition in vivo at 5 mg/kg is 90%.

Q: COc1cccc([C@@H]2C[C@H]3C=C(c4c[nH]c(-c5ccc(F)c(F)c5)c4-c4ccncc4)CCN3C2)c1 [Example 31, 2-(3,4-Difluorophenyl)-4-[(2S,8aS)-2-(3-methoxyphenyl)-1,2,3,5,6,8a-hexahydroindolizin-7-yl]-3-(pyridin-4-yl)-1H-pyrrole] was tested. Which inhibition in vivo at 5 mg/kg did it give?
A: Its inhibition in vivo at 5 mg/kg is 92%.

Q: How did the inhibition in vivo at 5 mg/kg turn out when Cc1ccc([C@@H]2C[C@H]3C=C(c4c[nH]c(-c5ccc(F)c(F)c5)c4-c4ccncc4)CCN3C2)cc1C [Example 41, 2-(3,4-Difluorophenyl)-4-[(2S,8aS)-2-(3,4-dimethylphenyl)-1,2,3,5,6,8a-hexahydroindolizin-7-yl]-3-(pyridin-4-yl)-1H-pyrrole] was run?
A: The inhibition in vivo at 5 mg/kg was 91%.

Q: With Fc1ccc(-c2[nH]cc(C3=C[C@@H]4C[C@@H](c5ccccc5)CN4CC3)c2-c2ccncc2)cc1Cl [Example 46, 2-(3-Chloro-4-fluorophenyl)-4-[(2S,8aS)-2-phenyl-1,2,3,5,6,8a-hexahydroindolizin-7-yl]-3-(pyridin-4-yl)-1H-pyrrole] as the molecule, how does the inhibition in vivo at 5 mg/kg read?
A: The inhibition in vivo at 5 mg/kg was 93%.

system: adjuvant-induced arthritis; assay: Activity in preventing the development of adjuvant-induced arthritis in vivo; settings: dose: 10 mg/kg, oral once a day from day 0 to day 20; measured on day 21; Lewis rat
Method: Activity in Preventing the Development of Adjuvant-Induced Arthritis In Vivo The test was performed according to the method described by Winder et al. (Arthritis Rheum., 12, 472-482, 1969). Heat-killed dried Mycobacterium butyricum (Difco Laboratories, Lot 679123) was ground on an agate mortar, and was then suspended in dry-sterilised liquid paraffin (first grade, Wako Pure Chemical Industries, Ltd.) to make a 2 mg/ml suspension. The resulting suspension was then sonicated and used as an adjuvant. Arthritis was induced by the intradermal injection of the adjuvant (100 μg of heat killed dried bacterium/0.05 ml of paraffin/paw) into the heel of the right hind paw of a Lewis rat (male, age 9 weeks, 190 g, Japan Charles River). The rats were assigned to groups of 5 animals each. […] The volumes of the right hind paw (adjuvant-injected paw) and left hind paw (non-injected paw) were measured on days 3, 5, 7, 10, 13, 15, 18 and 21 using a Plethysmometer™ (Ugo Basile), the hind paws being soaked from the toe to the hairline in the bath of the Plethysmometer™. The volumes of the swollen feet (adjuvant-injected right hind foot volume—non-injected left hind foot volume) were calculated. The percent inhibition of swelling of the injected foot of the treated animals as compared to that of the control animals on day 21 was calculated as follows. [formula]

Q: Which “Inhibition rate (%) of swelling of adjuvant-injected foot” value does the source give for Fc1ccc(-c2[nH]cc(C3=C[C@@H]4C[C@@H](c5ccccc5)CN4CC3)c2-c2ccncc2)cc1 [Example 2, 2-(4-Fluorophenyl)-4-[(2S,8aS)-2-phenyl-1,2,3,5,6,8a-hexahydroindolizin-7-yl]-3-(pyridin-4-yl)-1H-pyrrole] here?
A: The value was 84%.

Q: How did the “Inhibition rate (%) of swelling of adjuvant-injected foot” value turn out when Fc1ccc(-c2[nH]nc(C3=C[C@@H]4C[C@@H](c5ccccc5)CN4CC3)c2-c2ccncc2)cc1 [Example 7, 5-(4-Fluorophenyl)-3-[(2S,8aS)-2-phenyl-1,2,3,5,6,8a-hexahydroindolizin-7-yl]-4-(pyridin-4-yl)pyrazole] was run?
A: The value was 81%.
